Patent US20140243334A1, “SUBSTITUTED HYDOXAMIC ACIDS AND USES THEREOF” (Millennium Pharmaceuticals, Inc., priority 2010, published 2014)

Molecular target: T1, purified human HDAC6 (Homo sapiens, UniProt Q9UBN7)
T1 construct: purchased BPS Bioscience 5006
T1 sequence (Q9UBN7 1-1215): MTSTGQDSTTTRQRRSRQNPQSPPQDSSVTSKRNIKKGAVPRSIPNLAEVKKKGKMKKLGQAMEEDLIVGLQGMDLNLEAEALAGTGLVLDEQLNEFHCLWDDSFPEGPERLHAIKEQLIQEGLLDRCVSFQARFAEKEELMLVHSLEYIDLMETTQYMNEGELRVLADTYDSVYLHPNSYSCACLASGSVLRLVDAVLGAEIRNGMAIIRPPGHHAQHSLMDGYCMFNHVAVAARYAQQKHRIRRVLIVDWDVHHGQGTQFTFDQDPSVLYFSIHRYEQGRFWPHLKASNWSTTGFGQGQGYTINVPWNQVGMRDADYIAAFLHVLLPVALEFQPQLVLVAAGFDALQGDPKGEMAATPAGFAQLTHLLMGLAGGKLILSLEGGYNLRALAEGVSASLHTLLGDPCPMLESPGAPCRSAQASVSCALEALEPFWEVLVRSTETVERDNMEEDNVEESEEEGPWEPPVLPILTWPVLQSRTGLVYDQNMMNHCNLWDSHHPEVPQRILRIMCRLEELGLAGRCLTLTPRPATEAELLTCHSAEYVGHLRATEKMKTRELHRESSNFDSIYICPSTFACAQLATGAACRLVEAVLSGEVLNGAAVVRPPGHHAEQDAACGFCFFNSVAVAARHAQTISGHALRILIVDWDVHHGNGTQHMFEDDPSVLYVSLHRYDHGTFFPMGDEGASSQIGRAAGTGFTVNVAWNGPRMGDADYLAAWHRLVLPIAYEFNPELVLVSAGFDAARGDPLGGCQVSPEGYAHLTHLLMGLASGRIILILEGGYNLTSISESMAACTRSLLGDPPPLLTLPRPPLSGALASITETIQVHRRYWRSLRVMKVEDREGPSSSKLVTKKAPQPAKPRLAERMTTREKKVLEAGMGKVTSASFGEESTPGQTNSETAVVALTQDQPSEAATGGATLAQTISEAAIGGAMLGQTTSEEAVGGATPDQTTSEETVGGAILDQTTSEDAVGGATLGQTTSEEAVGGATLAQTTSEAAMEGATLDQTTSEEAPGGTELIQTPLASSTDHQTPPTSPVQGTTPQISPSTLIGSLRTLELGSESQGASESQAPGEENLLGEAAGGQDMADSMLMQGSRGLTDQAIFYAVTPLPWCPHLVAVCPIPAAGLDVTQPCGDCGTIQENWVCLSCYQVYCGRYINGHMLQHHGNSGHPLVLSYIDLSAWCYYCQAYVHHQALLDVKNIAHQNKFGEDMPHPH
Assay: HDAC6 Enzyme Assay
Format: biochemical
Conditions: HDAC6 inhibition at a compound concentration of 0.412 μM; read-out: Percent Inhibition at 0.412 μM

Structure (SMILES)	inhibition at 0.412 µM
COc1ccc(-c2ccc3c(c2)CC(C(=O)NO)CC3)c(C)c1 (stereo not drawn) [Compound I-95, N-hydroxy-7-(4-methoxy-2-methylphenyl)-1,2,3,4-tetrahydronaphthalene-2-carboxamide]	78%
O=C(NO)C1CCc2ccc(-c3csc4ccccc34)cc2C1 (stereo not drawn) [Compound I-96, 7-(1-benzothien-3-yl)-N-hydroxy-1,2,3,4-tetrahydronaphthalene-2-carboxamide]	79%
O=C(NO)C1CCc2ccc(-c3ccc(N4CCCC4)nc3)cc2C1 (stereo not drawn) [Compound I-97, N-hydroxy-7-(6-pyrrolidin-1-ylpyridin-3-yl)-1,2,3,4-tetrahydronaphthalene-2-carboxamide]	81%
Cc1ccc(-c2ccc3c(c2)CC(C(=O)NO)CC3)c2ccccc12 (stereo not drawn) [Compound I-98, N-hydroxy-4-methyl-5′,6′,7′,8′-tetrahydro-1,2′-binaphthalene-7′-carboxamide]	78%
O=C(NO)C1CCc2ccc(-c3ccc(N4CCOCC4)nc3)cc2C1 (stereo not drawn) [Compound I-99, N-hydroxy-7-(6-morpholin-4-ylpyridin-3-yl)-1,2,3,4-tetrahydronaphthalene-2-carboxamide]	82%
CNC(=O)c1cc(F)cc(-c2ccc3c(c2)CC(C(=O)NO)CC3)c1 (stereo not drawn) [Compound I-100, 7-{3-fluoro-5-[(methylamino)carbonyl]phenyl}-N-hydroxy-1,2,3,4-tetrahydronaphthalene-2-carboxamide]	84%
COc1ccc(-c2ccc3c(c2)CC(C(=O)NO)CC3)cc1F (stereo not drawn) [Compound I-101, 7-(3-fluoro-4-methoxyphenyl)-N-hydroxy-1,2,3,4-tetrahydronaphthalene-2-carboxamide]	82%
Cc1cc(F)ccc1-c1ccc2c(c1)CC(C(=O)NO)CC2 (stereo not drawn) [Compound I-102, 7-(4-fluoro-2-methylphenyl)-N-hydroxy-1,2,3,4-tetrahydronaphthalene-2-carboxamide]	76%
O=C(NO)C1CCc2ccc(-c3ccoc3)cc2C1 (stereo not drawn) [Compound I-103, 7-(3-furyl)-N-hydroxy-1,2,3,4-tetrahydronaphthalene-2-carboxamide]	72%
O=C(NO)C1CCc2ccc(-c3ccc([N+](=O)[O-])cc3)cc2C1 (stereo not drawn) [Compound I-104, N-hydroxy-7-(4-nitrophenyl)-1,2,3,4-tetrahydronaphthalene-2-carboxamide]	78%
N#Cc1cc(-c2ccc3c(c2)CC(C(=O)NO)CC3)ccc1F (stereo not drawn) [Compound I-105, 7-(3-cyano-4-fluorophenyl)-N-hydroxy-1,2,3,4-tetrahydronaphthalene-2-carboxamide]	61%
O=C(NO)C1CCc2ccc(-c3cccc([N+](=O)[O-])c3)cc2C1 (stereo not drawn) [Compound I-106, N-hydroxy-7-(3-nitrophenyl)-1,2,3,4-tetrahydronaphthalene-2-carboxamide]	83%
CCOc1cccc(-c2ccc3c(c2)CC(C(=O)NO)CC3)c1 (stereo not drawn) [Compound I-107, 7-(3-ethoxyphenyl)-N-hydroxy-1,2,3,4-tetrahydronaphthalene-2-carboxamide]	86%
CN(C)C(=O)c1ccc(-c2ccc3c(c2)CC(C(=O)NO)CC3)cc1F (stereo not drawn) [Compound I-108, 7-{4-[(dimethylamino)carbonyl]-3-fluorophenyl}-N-hydroxy-1,2,3,4-tetrahydronaphthalene-2-carboxamide]	75%
COc1ccc(-c2ccc3c(c2)CC(C(=O)NO)CC3)cc1OC (stereo not drawn) [Compound I-109, 7-(3,4-dimethoxyphenyl)-N-hydroxy-1,2,3,4-tetrahydronaphthalene-2-carboxamide]	82%
O=C(NO)C1CCc2ccc(-c3cccc(-c4ccccc4)c3)cc2C1 (stereo not drawn) [Compound I-110, 7-biphenyl-3-yl-N-hydroxy-1,2,3,4-tetrahydronaphthalene-2-carboxamide]	83%
Cc1ccc(C)c(-c2ccc3c(c2)CC(C(=O)NO)CC3)c1 (stereo not drawn) [Compound I-111, 7-(2,5-dimethylphenyl)-N-hydroxy-1,2,3,4-tetrahydronaphthalene-2-carboxamide]	74%
O=C(NO)C1CCc2ccc(-c3ccc(C(F)(F)F)cc3)cc2C1 (stereo not drawn) [Compound I-112, N-hydroxy-7-[4-(trifluoromethyl)phenyl]-1,2,3,4-tetrahydronaphthalene-2-carboxamide]	58%
O=C(NO)C1CCc2ccc(-c3ccc(F)c(C(=O)N4CCCC4)c3)cc2C1 (stereo not drawn) [Compound I-113, 7-[4-fluoro-3-(pyrrolidin-1-ylcarbonyl)phenyl]-N-hydroxy-1,2,3,4-tetrahydronaphthalene-2-carboxamide]	89%
COc1ccc2cc(-c3ccc4c(c3)CC(C(=O)NO)CC4)ccc2c1 (stereo not drawn) [Compound I-114, N-hydroxy-6′-methoxy-5,6,7,8-tetrahydro-2,2′-binaphthalene-7-carboxamide]	76%
CN(C)C(=O)c1cc(-c2ccc3c(c2)CC(C(=O)NO)CC3)ccc1Cl (stereo not drawn) [Compound I-115, 7-{4-chloro-3-[(dimethylamino)carbonyl]phenyl}-N-hydroxy-1,2,3,4-tetrahydronaphthalene-2-carboxamide]	83%
CC(C)Oc1ncccc1-c1ccc2c(c1)CC(C(=O)NO)CC2 (stereo not drawn) [Compound I-116, N-hydroxy-7-(2-isopropoxypyridin-3-yl)-1,2,3,4-tetrahydronaphthalene-2-carboxamide]	82%
O=C(NO)C1CCc2ccc(-c3ccc(S(=O)(=O)N4CCOCC4)cc3)cc2C1 (stereo not drawn) [Compound I-117, N-hydroxy-7-[4-(morpholin-4-ylsulfonyl)phenyl]-1,2,3,4-tetrahydronaphthalene-2-carboxamide]	74%
O=C(NO)C1CCc2ccc(-c3ccc(C(=O)N4CCCC4)c(F)c3)cc2C1 (stereo not drawn) [Compound I-118, 7-[3-fluoro-4-(pyrrolidin-1-ylcarbonyl)phenyl]-N-hydroxy-1,2,3,4-tetrahydronaphthalene-2-carboxamide]	77%
O=C(NO)C1CCc2ccc(-c3ccc(F)c(Cl)c3)cc2C1 (stereo not drawn) [Compound I-119, 7-(3-chloro-4-fluorophenyl)-N-hydroxy-1,2,3,4-tetrahydronaphthalene-2-carboxamide]	69%
CC(C)(C#N)c1ccc(-c2ccc3c(c2)CC(C(=O)NO)CC3)cc1 (stereo not drawn) [Compound I-120, 7-[4-(1-cyano-1-methylethyl)phenyl]-N-hydroxy-1,2,3,4-tetrahydronaphthalene-2-carboxamide]	55%
O=C(NO)C1CCc2ccc(-c3ccc(OCc4ccccc4)cc3)cc2C1 (stereo not drawn) [Compound I-121, 7-[4-(benzyloxy)phenyl]-N-hydroxy-1,2,3,4-tetrahydronaphthalene-2-carboxamide]	54%
CC(C)Cc1ccc(-c2ccc3c(c2)CC(C(=O)NO)CC3)cc1 (stereo not drawn) [Compound I-122, N-hydroxy-7-(4-isobutylphenyl)-1,2,3,4-tetrahydronaphthalene-2-carboxamide]	34%
O=C(NO)C1CCc2ccc(-c3ccc(S(=O)(=O)N4CCCCC4)cc3)cc2C1 (stereo not drawn) [Compound I-123, N-hydroxy-7-[4-(piperidin-1-ylsulfonyl)phenyl]-1,2,3,4-tetrahydronaphthalene-2-carboxamide]	61%
CC1(C(=O)NO)CCc2ccc(Oc3ccc(Cl)cc3)cc2C1 (stereo not drawn) [Compound I-124, 7-(4-Chlorophenoxy)-N-hydroxy-2-methyl-1,2,3,4-tetrahydronaphthalene-2-carboxamide]	16%
